Assay type in all cases: cell-based
One test has as its system PC-3. Description: NCI-60 one-dose SRB screen (Prostate Cancer). The note with it: Homo sapiens, single dose 10 µM, 48 h, read-out: Growth inhibition percent (GI %).
The next test relates to DU-145. Description: NCI-60 one-dose SRB screen (Prostate Cancer). The note with it: Homo sapiens, single dose 10 µM, 48 h, read-out: Growth inhibition percent (GI %).
For the next test, the system named is OVCAR-5. Description: NCI-60 one-dose SRB screen (Ovarian cancer). The note with it: Homo sapiens, single dose 10 µM, 48 h, read-out: Growth inhibition percent (GI %).
The next test deals with OVCAR-8. Description: NCI-60 one-dose SRB screen (Ovarian cancer). The note with it: Homo sapiens, single dose 10 µM, 48 h, read-out: Growth inhibition percent (GI %).
The subject of the next test is SK-OV-3. Description: NCI-60 one-dose SRB screen (Ovarian cancer). The note with it: Homo sapiens, single dose 10 µM, 48 h, read-out: Growth inhibition percent (GI %).
A further test relates to OVCAR-4. Description: NCI-60 one-dose SRB screen (Ovarian cancer). As to conditions: Homo sapiens, single dose 10 µM, 48 h, read-out: Growth inhibition percent (GI %).
A further test concerns IGROV1. Description: NCI-60 one-dose SRB screen (Ovarian cancer). As to conditions: Homo sapiens, IGROV-1, single dose 10 µM, 48 h, read-out: Growth inhibition percent (GI %).
A further test has as its system OVCAR-3. Description: NCI-60 one-dose SRB screen (Ovarian cancer). The note with it: Homo sapiens, single dose 10 µM, 48 h, read-out: Growth inhibition percent (GI %).
Another test has as its system BT-549. Description: NCI-60 one-dose SRB screen (Breast Cancer). The note with it: Homo sapiens, single dose 10 µM, 48 h, read-out: Growth inhibition percent (GI %).
The subject of a further test is MDA-MB-231/ATCC. Description: NCI-60 one-dose SRB screen (Breast Cancer). As to conditions: Homo sapiens, single dose 10 µM, 48 h, read-out: Growth inhibition percent (GI %).
The next test concerns HS 578T. Description: NCI-60 one-dose SRB screen (Breast Cancer). As to conditions: Homo sapiens, single dose 10 µM, 48 h, read-out: Growth inhibition percent (GI %).
The subject of the next test is MDA-MB-468. Description: NCI-60 one-dose SRB screen (Breast Cancer). The note with it: Homo sapiens, single dose 10 µM, 48 h, read-out: Growth inhibition percent (GI %).
The subject of the next test is MCF-7. Description: NCI-60 one-dose SRB screen (Breast Cancer). As to conditions: Homo sapiens, MCF7, single dose 10 µM, 48 h, read-out: Growth inhibition percent (GI %).
The subject of another test is T-47D. Description: NCI-60 one-dose SRB screen (Breast Cancer). As to conditions: Homo sapiens, T47D, single dose 10 µM, 48 h, read-out: Growth inhibition percent (GI %).
The next test has as its system LOX IMVI. Description: NCI-60 one-dose SRB screen (Melanoma). As to conditions: Homo sapiens, single dose 10 µM, 48 h, read-out: Growth inhibition percent (GI %).
Another test has as its system NCI/ADR-RES. Description: NCI-60 one-dose SRB screen (Ovarian cancer). As to conditions: Homo sapiens, single dose 10 µM, 48 h, read-out: Growth inhibition percent (GI %).

The values below come from article PMC12454493, “Insight on novel sulfamoylphenyl pyrazole derivatives as anticancer carbonic anhydrase inhibitors” (Molecular Diversity, 2024).

With `COc1ccc(-c2nn(-c3ccc(S(N)(=O)=O)cc3)cc2C(=O)OCC(=O)Nc2ccc(S(N)(=O)=O)cc2)cc1` [Compound 4c, 2-Oxo-2-[(4-sulfamoylphenyl)amino] ethyl 3-(4-methoxyphenyl)-1-(4-sulfamoylphenyl)-1H-pyrazole-4-carboxylate], the inhibition at 10 µM in the test on PC-3 is 8.81%; with DU-145, less than 5%; with OVCAR-5 it was less than 5%; in the test with OVCAR-8 it was less than 5%; in the test with SK-OV-3, less than 5%; in the test on OVCAR-4 it was less than 5%. The inhibition at 10 µM with IGROV1 was less than 5%; in the test with OVCAR-3, less than 5%; in the test on BT-549, 41.6%; with MDA-MB-231/ATCC, less than 5%; in the test with HS 578T it was less than 5%; with MDA-MB-468, less than 5%. The inhibition at 10 µM with MCF-7 was 8.77%; in the test with T-47D, less than 5%; in the test with LOX IMVI, less than 5%.

As to `CS(=O)(=O)c1ccc(-c2nn(-c3ccc(S(N)(=O)=O)cc3)cc2C(=O)OCC(=O)Nc2ccc(S(N)(=O)=O)cc2)cc1` [Compound 4e, 2-Oxo-2-[(4-sulfamoylphenyl)amino] ethyl 3-(4-(methylsulfonyl)phenyl)-1-(4-sulfamoylphenyl)-1H-pyrazole-4-carboxylate], the inhibition at 10 µM in the test on PC-3, with DU-145, in the test with OVCAR-5, with OVCAR-8, with NCI/ADR-RES and in the test with SK-OV-3 was less than 5% each time. The inhibition at 10 µM with OVCAR-4, in the test on IGROV1, in the test with OVCAR-3, in the test on BT-549, in the test on MDA-MB-231/ATCC and in the test with HS 578T was less than 5% in each case. Moreover, the inhibition at 10 µM in the test on MDA-MB-468, in the test with MCF-7, with T-47D and in the test with LOX IMVI was less than 5% each time.

On to `CCOC(=O)c1ccc(NC(=O)COC(=O)c2cn(-c3ccc(S(N)(=O)=O)cc3)nc2-c2ccc(OC)cc2)cc1` [Compound 5c, 2-[(4-(Ethoxycarbonyl)phenyl)amino]-2-oxoethyl 3-(4-methoxyphenyl)-1-(4-sulfamoylphenyl)-1H-pyrazole-4-carboxylate], for which the inhibition at 10 µM is 50.9% with PC-3; 14.7% in the test with DU-145; 13.7% in the test with OVCAR-5; 5.25% in the test with OVCAR-8; less than 5% with NCI/ADR-RES; 11.6% with SK-OV-3. The inhibition at 10 µM in the test on OVCAR-4 is 42.5%; in the test with IGROV1, less than 5%; in the test with OVCAR-3, 23.2%; in the test on BT-549, 21.5%; in the test with MDA-MB-231/ATCC, 18.8%; in the test on HS 578T it was 31.3%. The inhibition at 10 µM came out at 40% with MDA-MB-468, 48.8% in the test with MCF-7, 46.2% in the test with T-47D and 21.3% in the test on LOX IMVI.

As to `CCOC(=O)c1ccc(NC(=O)COC(=O)c2cn(-c3ccc(S(N)(=O)=O)cc3)nc2-c2ccc(Br)cc2)cc1` [Compound 5d, 2-[(4-(Ethoxycarbonyl)phenyl)amino]-2-oxoethyl 3-(4-bromophenyl)-1-(4-sulfamoylphenyl)-1H-pyrazole-4-carboxylate], the inhibition at 10 µM worked out at 78.8% in the test with PC-3; 45.8% in the test on DU-145; 38% with OVCAR-5; 13.3% in the test with OVCAR-8; 28.2% with NCI/ADR-RES; 29% with SK-OV-3. Further, the inhibition at 10 µM in the test on OVCAR-4 amounted to 64%; in the test with IGROV1, 31.7%; with OVCAR-3, 62.6%; in the test on BT-549 it was 36.6%; in the test on MDA-MB-231/ATCC it was 43.7%; with HS 578T, 51.3%. Further, the inhibition at 10 µM in the test with MDA-MB-468 came to 67.6%; with MCF-7 it was 91%; in the test with T-47D it was 60.2%; in the test with LOX IMVI it was 72.9%.

On to `CCOC(=O)c1ccc(NC(=O)COC(=O)c2cn(-c3ccc(S(N)(=O)=O)cc3)nc2-c2ccc(S(C)(=O)=O)cc2)cc1` [Compound 5e, 2-[(4-(Ethoxycarbonyl)phenyl)amino]-2-oxoethyl 3-(4-(methylsulfonyl)phenyl)-1-(4-sulfamoylphenyl)-1H-pyrazole-4-carboxylate], for which the inhibition at 10 µM was less than 5% in the test on PC-3; less than 5% in the test on DU-145; 7.15% in the test on OVCAR-5; less than 5% in the test with OVCAR-8; less than 5% with NCI/ADR-RES; less than 5% in the test on SK-OV-3. Further, the inhibition at 10 µM in the test with OVCAR-4 was 12.3%; in the test on IGROV1 it was less than 5%; in the test with OVCAR-3, less than 5%; with BT-549, 18.9%; in the test on MDA-MB-231/ATCC, less than 5%; in the test with HS 578T, 23.7%. Besides, the inhibition at 10 µM stood at 20.3% in the test on MDA-MB-468, 6.56% with MCF-7, 19.1% in the test on T-47D and 11.6% in the test on LOX IMVI.

Take `NS(=O)(=O)c1ccc(-n2cc(C(=O)OCC(=O)Nc3nnc(S(N)(=O)=O)s3)c(-c3ccccc3)n2)cc1` [Compound 6a, 2-Oxo-2-[(5-sulfamoyl-1,3,4-thiadiazol-2-yl)amino] ethyl 3-phenyl-1-(4-sulfamoylphenyl)-1H-pyrazole-4-carboxylate]: the inhibition at 10 µM was less than 5% in the test with PC-3; less than 5% with DU-145; less than 5% in the test on OVCAR-5; less than 5% in the test with OVCAR-8; less than 5% in the test with NCI/ADR-RES; 54.6% in the test with SK-OV-3. The inhibition at 10 µM in the test on OVCAR-4 was less than 5%; in the test on IGROV1 it was less than 5%; in the test with OVCAR-3, less than 5%; in the test with BT-549, less than 5%; in the test with MDA-MB-231/ATCC it was 9.95%; with HS 578T, 5.52%. The inhibition at 10 µM was less than 5% in the test on MDA-MB-468, 22.6% in the test on MCF-7, less than 5% in the test with T-47D and 8.67% with LOX IMVI.

`Cc1ccc(-c2nn(-c3ccc(S(N)(=O)=O)cc3)cc2C(=O)OCC(=O)Nc2nnc(S(N)(=O)=O)s2)cc1` [Compound 6b, 2-Oxo-2-[(5-sulfamoyl-1,3,4-thiadiazol-2-yl)amino] ethyl 1-(4-sulfamoylphenyl)-3-(p-tolyl)-1H-pyrazole-4-carboxylate]: the inhibition at 10 µM with PC-3 was 7.13%; in the test with DU-145, less than 5%; in the test with OVCAR-5 it was less than 5%; in the test with OVCAR-8, less than 5%; in the test on NCI/ADR-RES, less than 5%; in the test on SK-OV-3, less than 5%. Also, the inhibition at 10 µM is 16% in the test on OVCAR-4; less than 5% with IGROV1; less than 5% with OVCAR-3; less than 5% in the test on BT-549; 8.63% in the test on MDA-MB-231/ATCC; less than 5% in the test on HS 578T. Moreover, the inhibition at 10 µM was less than 5% in the test on MDA-MB-468, less than 5% in the test on MCF-7, less than 5% in the test with T-47D and 12.1% in the test with LOX IMVI.
